Data reported in US10913952B2, “Environmental stress response transcriptional regulatory network” (Salk Institute for Biological Studies, priority 2016, dated 2021).

Key:
Arabidopsis thaliana = assay: RNA-seq of ABA-treated etiolated seedlings (ABA time series); format: in vivo
Experimental: For ABA time series experiments, two biological replicates of 3-day-old etiolated, hydroponic-grown wild-type Col-0 seedlings were treated either by 10 μM (+/−)-ABA (MP biomedicals LLC, cat. #190673) dissolved in ethanol or ethanol-only mock control for 1, 4, 8, 12, 24, 36, and 60 hours. For DEX treatment, short term experiment was carried out by treating 3-day-old etiolated, DEX-inducible GFP-DIG1, GFP-DIG2 or GFP lines with 10 μM DEX (Sigma Aldrich, cat. #D9184); long term experiment was carried out by growing the same lines of plants containing 500 nM DEX for 10 days. Total RNA was isolated using the RNeasy Plant Mini Kit (Qiagen, CA, USA, Cat. #74903), and cDNA libraries were constructed using the TruSeq Stranded Total RNA LT Sample Prep Kit (Illumina, CA, USA, Cat. #15032611) according to manufacturers' instructions. Single-end reads were generated by the HiSeq 2500 Sequencing System (Illumina) and mapped to TAIR10 genome assembly using TopHat 2 (v2.0.8) (56). Mapped reads with mapping score equal to or larger than 10 were counted by HTSeq (v0.5.4) (57) and analyzed by edgeR (v3.6.2) (18) to identify differentially expressed genes using contrasts between ABA- and mock-treated samples at each time point and false discovery rate 0.01 or 0.05 as thresholds.
The genome-wide binding dynamics of a diverse collection of TFs was profiled using ChIP-seq to develop an in planta ABA transcriptional regulatory network. ABA-responsive transcripts were first surveyed in Arabidopsis thaliana, by generating strand-specific RNA-seq libraries from 3-day-old etiolated whole seedlings treated with either 10 uM (+/−)-ABA or an ethanol-containing mock for 1, 4, 8, 12, 24, 36 and 60 hours (FIG. 1A). Among 18,310 expressed genes, 3,061 are DE (FDR<0.01, Table 1) (18) for at least one time point. One hour of ABA treatment leads to moderate DE of many genes, and most transcriptional responses plateau after 8 hours (FIGS. 1B, 2). On the basis of gene expression data, we performed ChIP-seq experiments at four hours post ABA dose. TFs were selected based on responsiveness to ABA and published evidence, aiming to provide a good representation of TF families (FIG. 3; Tables 1 and 2). In general, highly expressed and responsive TFs were chosen in each representative TF family because in the context of an in planta experimental framework, the impact of these TFs on gene expression can be more effectively investigated compared with their weakly expressed homologs. All TF genes were epitope tagged by a recombineering-based approach (19), mostly with large DNA transformable artificial chromosomes, allowing the TFs to be expressed under their native promoters and genomic context (Table 2). The final dataset consisted of one hundred and twenty-two ChIP-seq experiments of 21 TFs from 11 families, including mock- and ABA-treated conditions.

ChIPped TFs = assay: Western blot of epitope-tagged ChIPped TFs after ABA treatment; format: in vivo, Arabidopsis thaliana; conditions: H3 loading control
[1] = 10 uM ABA treatment for 4 hours

CC1=CC(=O)CC(C)(C)C1(O)/C=C/C(C)=C\C(=O)O (racemic) [ABA, abscisic acid]
number of differentially expressed (DE) genes (Arabidopsis thaliana; 10 uM (+/-)-ABA vs ethanol mock, 1-60 hours, DE for at least one time point, FDR<0.01, among 18,310 expressed genes): 3,061
RNA-seq evidence: ABF1 (Arabidopsis thaliana; [1]): up regulated
RNA-seq evidence: ABF3 (Arabidopsis thaliana; [1]): up regulated
RNA-seq evidence: ABF4 (Arabidopsis thaliana; [1]): up regulated
RNA-seq evidence: ANAC032 (Arabidopsis thaliana; [1]): up regulated
RNA-seq evidence: ANAC102 (Arabidopsis thaliana; [1]): up regulated
RNA-seq evidence: DREB2A (Arabidopsis thaliana; [1]): up regulated
RNA-seq evidence: FBH3 (Arabidopsis thaliana; [1]): up regulated
RNA-seq evidence: GBF2 (Arabidopsis thaliana; [1]): up regulated
RNA-seq evidence: GBF3 (Arabidopsis thaliana; [1]): up regulated
RNA-seq evidence: HAT22 (Arabidopsis thaliana; [1]): up regulated
RNA-seq evidence: HB6 (Arabidopsis thaliana; [1]): up regulated
RNA-seq evidence: HSFA6A (Arabidopsis thaliana; [1]): up regulated
RNA-seq evidence: MYB3 (Arabidopsis thaliana; [1]): up regulated
RNA-seq evidence: MYB44 (Arabidopsis thaliana; [1]): up regulated
RNA-seq evidence: NF-YB2 (Arabidopsis thaliana; [1]): up regulated
RNA-seq evidence: NF-YC2 (Arabidopsis thaliana; [1]): up regulated
RNA-seq evidence: RD26 (ANAC072) (Arabidopsis thaliana; [1]): up regulated
RNA-seq evidence: ZAT6 (Arabidopsis thaliana; [1]): up regulated
number of differentially expressed TFs (Arabidopsis thaliana; first 1, 4 or 8 hours of ABA treatment, edgeR FDR threshold 0.05): Two hundred and twenty-two
protein abundance of most ChIPped TFs (ChIPped TFs): elevated
